pIC50: −log10 of the molar value. Read-outs that look alike come from different tables or passages of the source.
Biological target: T1, Akt1 (Homo sapiens, UniProt P31749, S473D)
T1 construct: The version of Akt used in these studies lacks the pleckstrin homology (PH) domain
Assay: Akt1 kinase assay, fluorescence polarization (IMAP)
Format: biochemical
Settings: for pIC50: Table 1, concentration bins, read-out: Concentration Range at which exemplary compounds of formula I inhibit Akt kinase activity; for IC50: read-out: Avg Akt kinase, μM (50% inhibition)
Procedure: The Akt1 kinase assay is based on the measurement of fluorescence polarization using IMAP technology (Molecular Devices Corporation #R8062). Two microliters of inhibitor compounds diluted to a concentration of 10 millimolar are added to column 2 of a polypropylene 96-well plate containing 98 microliters of 100% DMSO; the wells in columns 3-12 contain 60 microliters of 100% DMSO. The various test compounds are serially diluted 1:3 across the plate by pipetting 30 microliters of compounds into wells containing 60 microliters of 100% DMSO. Column 12 receives DMSO only and is used as a negative control for inhibition. The components of the wells are mixed and 15 microliters of each well are transferred to another 96-well plate already containing 60 microliters of reaction buffer (RB: 10 mM Tris-HCl, pH 7.5, 10 mM MgCl2, 0.1 mM EGTA, 0.01% Triton-X100 (Sigma #X-100), freshly added 1 mM DTT). After mixing, the […] reactions are assembled. First, five microliters of the above compound/reaction buffer mixture is transferred to the bottom of a 96-well black polystyrene reaction plate (Costar, #3694). Next, ten microliters of a solution containing 4 micromolar ATP and 40 nanomolar fluorescent-labeled Crosstide (Tamara-labeled […] peptide) are added. Then, 5 microliters (1.5 nanograms) of Akt protein in RB are added. The version of Akt used in these studies lacks the pleckstrin homology (PH) domain, and contains an aspartic acid residue in place of a serine residue in position 473 within the Akt1 hydrophobic motif. The Akt1 protein contains a polyhistidine tag at the amino terminus and is prephosphorylated on threonine at position 308 in order to activate latent kinase activity. Once the reaction components and inhibitors are assembled, the plates are gently tapped, covered with foil, and then incubated at ambient temperature for 30 minutes. IMAP beads (Molecular Devices) are then added (60 microliters of a 1:400 dilution of beads in RB). Plates are read on a Victor Plate Reader with the following settings: CW lamp filter: 544 nm, emission filter: 615 nm. Control values from wells lacking Akt protein are subtracted from the gross readings, and IC50 values are calculated using XLDA.

T1 sequence (P31749 118-480 S473D limits assumed, species assumed): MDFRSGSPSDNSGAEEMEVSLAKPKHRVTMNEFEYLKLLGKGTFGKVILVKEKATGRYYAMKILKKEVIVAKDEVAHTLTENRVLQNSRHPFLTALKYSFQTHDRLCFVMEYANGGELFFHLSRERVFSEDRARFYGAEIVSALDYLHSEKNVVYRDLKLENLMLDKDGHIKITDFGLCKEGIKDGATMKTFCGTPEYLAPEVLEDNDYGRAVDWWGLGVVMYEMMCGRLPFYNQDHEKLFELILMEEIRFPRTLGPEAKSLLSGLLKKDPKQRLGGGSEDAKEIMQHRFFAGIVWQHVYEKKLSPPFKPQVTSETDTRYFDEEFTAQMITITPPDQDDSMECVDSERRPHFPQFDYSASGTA

SMILES | pIC50 | IC50 (Table 3) | IC50 (Table 4)
N#Cc1c[nH]c2ncnc(N3CCC(N)(CNc4ccc5c(c4)CNCC5)C3)c12 (centres unmarked) [Example 39, 4-{3-amino-3-[(1,2,3,4-tetrahydroisoquinolin-7-ylamino)methyl]pyrrolidin-1-yl}-7H-pyrrolo[2,3-d]pyrimidine-5-carbonitrile] | 5.00 to 7.00 | 4.1 µM | 
Cc1c[nH]c2ncnc(N3CCC(N)(CNc4cccc(-c5cnco5)c4)C3)c12 (centres unmarked) [Example 44, 1-(5-methyl-7H-pyrrolo[2,3-d]pyrimidin-4-yl)-3-({[3-(1,3-oxazol-5-yl)phenyl]amino}methyl)pyrrolidin-3-amine] | 5.00 to 7.00 | 0.837 µM | 
Cc1c[nH]c2ncnc(N3CCC(N)(CN(C)Cc4ccc(Cl)cc4)C3)c12 (centres unmarked) [Example 45, 3-{[(4-chlorobenzyl)(methyl)-amino]methyl}-1-(5-methyl-7H-pyrrolo[2,3-d]pyrimidin-4-yl)pyrrolidin-3-amine] | 5.00 to 7.00 | 0.144 µM | 
Cc1c[nH]c2ncnc(N3CCC(N)(CNCCN(C)C)C3)c12 (centres unmarked) [Example 46, N′-{[3-amino-1-(5-methyl-7H-pyrrolo[2,3-d]pyrimidin-4-yl)pyrrolidin-3-yl]methyl}-N,N-dimethylethane-1,2-diamine] | 5.00 to 7.00 | 0.125 µM | 
Cc1c[nH]c2ncnc(N3CCC(N)(CN(CCN(C)C)Cc4ccccc4)C3)c12 (centres unmarked) [Example 47, N-{[3-amino-1-(5-methyl-7H-pyrrolo[2,3-d]pyrimidin-4-yl)pyrrolidin-3-yl]methyl}-N-benzyl-N′,N′-dimethylethane-1,2-diamine] | 5.00 to 7.00 | 0.172 µM | 
Cc1c[nH]c2ncnc(N3CCC(N)(CN(C)c4ccccc4)C3)c12 (centres unmarked) [Example 48, 3-{[methyl(phenyl)amino]methyl}-1-(5-methyl-7H-pyrrolo[2,3-d]pyrimidin-4-yl)pyrrolidin-3-amine] | 5.00 to 7.00 | 0.12 µM | 
Cc1c[nH]c2ncnc(N3CCC(N)(CN4CCCc5ccccc54)C3)c12 (centres unmarked) [Example 49, 3-(3,4-dihydroquinolin-1(2H)-ylmethyl)-1-(5-methyl-7H-pyrrolo[2,3-d]pyrimidin-4-yl)pyrrolidin-3-amine] | 5.00 to 7.00 | 0.131 µM | 
CCN(CC1(N)CCN(c2ncnc3[nH]cc(C)c23)C1)c1ccccc1 (centres unmarked) [Example 50, 3-{[ethyl(phenyl)amino]methyl}-1-(5-methyl-7H-pyrrolo[2,3-d]pyrimidin-4-yl)pyrrolidin-3-amine] | 5.00 to 7.00 | 0.116 µM | 
Cc1c[nH]c2ncnc(N3CCC(N)(CNCC4CC4)C3)c12 (centres unmarked) [Example 54, 3-{[(cyclopropylmethyl)amino]methyl}-1-(5-methyl-7H-pyrrolo[2,3-d]pyrimidin-4-yl)pyrrolidin-3-amine] | 5.00 to 7.00 | 0.739 µM | 
Cc1c[nH]c2ncnc(N3CCC(N)(CNc4nccc(C(F)(F)F)n4)C3)c12 (centres unmarked) [Example 57, N-{[3-amino-1-(5-methyl-7H-pyrrolo[2,3-d]pyrimidin-4-yl)pyrrolidin-3-yl]methyl}-4-(trifluoromethyl)pyrimidin-2-amine] | 7.00 to 8.00 | 0.0287 µM | 
Cc1c[nH]c2ncnc(N3CCC(N)(COc4cccc(C(F)(F)F)c4)C3)c12 (centres unmarked) [Example 60, 1-(5-Methyl-7H-pyrrolo[2,3-d]pyrimidin-4-yl)-3-(3-trifluoromethyl-phenoxymethyl) pyrrolidin-3-ylamine] | 7.00 to 8.00 |  | 0.0504 µM
Cc1c[nH]c2ncnc(N3CC[C@](N)(COc4cccc(C(F)(F)F)c4)C3)c12 [Example 61, (3R)-1-(5-methyl-7H-pyrrolo[2,3-d]pyrimidin-4-yl)-3-{[3-(trifluoromethyl)-phenoxy]methyl}pyrrolidin-3-amine] | 7.00 to 8.00 |  | 0.0335 µM

Now from value to compound:

pIC50 | IC50 (Table 3) | IC50 (Table 4) | SMILES
7.00 to 8.00 | 0.0105 µM |  | Cc1c[nH]c2ncnc(N3CCC(N)(CNc4cccc(F)c4F)C3)c12 (centres unmarked) [Example 32, 3-{[(2,3-difluorophenyl)amino]methyl}-1-(5-methyl-7H-pyrrolo[2,3-d]pyrimidin-4-yl)pyrrolidin-3-amine]
8.00 to 8.60 | 0.00859 µM |  | Cc1c[nH]c2ncnc(N3CCC(N)(CNc4cc(C(F)(F)F)ccc4Oc4ccc(Cl)cc4)C3)c12 (centres unmarked) [Example 33, 3-({[2-(4-chlorophenoxy)-5-(trifluoromethyl)phenyl]amino}-methyl)-1-(5-methyl-7H-pyrrolo[2,3-d]pyrimidin-4-yl)pyrrolidin-3-amine]
8.00 to 8.60 | 0.00771 µM |  | Cc1c[nH]c2ncnc(N3CCC(N)(CNc4ccc(F)cc4F)C3)c12 (centres unmarked) [Example 34, 3-{[(2,4-difluorophenyl)amino]methyl}-1-(5-methyl-7H-pyrrolo[2,3-d]pyrimidin-4-yl)pyrrolidin-3-amine]
8.00 to 8.60 | 0.00797 µM |  | Cc1c[nH]c2ncnc(N3CCC(N)(CNc4cccc5c4CCCC5)C3)c12 (centres unmarked) [Example 35, 1-(5-methyl-7H-pyrrolo[2,3-d]pyrimidin-4-yl)-3-[(5,6,7,8-tetrahydronaphthalen-1-ylamino)methyl]pyrrolidin-3-amine]
8.60 to 9.60 | 0.002 µM |  | Cc1c[nH]c2ncnc(N3CC[C@](N)(CNc4cccc(C(F)(F)F)c4F)C3)c12 [Example 36, (3S)-3-({[2-fluoro-3-(trifluoromethyl)phenyl]amino}-methyl)-1-(5-methyl-7H-pyrrolo[2,3-d]pyrimidin-4-yl)pyrrolidin-3-amine]
8.00 to 8.60 | 0.00329 µM |  | Cc1c[nH]c2ncnc(N3CC[C@](N)(CNc4cccc(F)c4)C3)c12 [Example 37, (3S)-3-{[(3-fluorophenyl)amino]methyl}-1-(5-methyl-7H-pyrrolo[2,3-d]pyrimidin-4-yl)pyrrolidin-3-amine]
8.00 to 8.60 | 0.00371 µM |  | N#Cc1c[nH]c2ncnc(N3CCC(N)(CNc4cccc5c4CCCC5)C3)c12 (centres unmarked) [Example 38, 4-{3-amino-3-[(5,6,7,8-tetrahydronaphthalen-1-ylamino)methyl]pyrrolidin-1-yl}-7H-pyrrolo[2,3-d]pyrimidine-5-carbonitrile]
8.00 to 8.60 | 0.00807 µM |  | N#Cc1c[nH]c2ncnc(N3CCC(N)(CNc4cccc(C(F)(F)F)c4F)C3)c12 (centres unmarked) [Example 40, 4-[3-amino-3-({[2-fluoro-3-(trifluoromethyl)phenyl]amino}-methyl)pyrrolidin-1-yl]-7H-pyrrolo[2,3-d]pyrimidine-5-carbonitrile]
7.00 to 8.00 | 0.0134 µM |  | Cc1n[nH]c2ncnc(N3CCC(N)(CNc4cccc(Cl)c4F)C3)c12 (centres unmarked) [Example 41, 3-{[(3-chloro-2-fluorophenyl)amino]methyl}-1-(3-methyl-1H-pyrazolo[3,4-d]pyrimidin-4-yl)pyrrolidin-3-amine]
7.00 to 8.00 | 0.0354 µM |  | NC1(CNc2cccc(C(F)(F)F)c2)CCN(c2ccnc3[nH]ccc23)C1 (centres unmarked) [Example 42, 1-(1H-pyrrolo[2,3-b]pyridin-4-yl)-3-({[3-(trifluoromethyl)phenyl]amino}-methyl)pyrrolidin-3-amine]
8.60 to 9.60 | 0.002 µM |  | Cc1c(Cl)cccc1NCC1(N)CCN(c2ncnc3[nH]cc(Cl)c23)C1 (centres unmarked) [Example 43, 3-{[(3-chloro-2-methylphenyl)amino]methyl}-1-(5-chloro-7H-pyrrolo[2,3-d]pyrimidin-4-yl)pyrrolidin-3-amine]
7.00 to 8.00 | 0.0362 µM |  | Cc1c[nH]c2ncnc(N3CCC(N)(CN4CCc5ccccc54)C3)c12 (centres unmarked) [Example 51, 3-(2,3-dihydro-1H-indol-1-ylmethyl)-1-(5-methyl-7H-pyrrolo[2,3-d]pyrimidin-4-yl)pyrrolidin-3-amine]
7.00 to 8.00 | 0.082 µM |  | Cc1c[nH]c2ncnc(N3CCC(N)(CNc4ccc(Cl)nn4)C3)c12 (centres unmarked) [Example 52, N-{[3-amino-1-(5-methyl-7H-pyrrolo[2,3-d]pyrimidin-4-yl)pyrrolidin-3-yl]methyl}-6-chloropyridazin-3-amine]
7.00 to 8.00 | 0.0293 µM |  | Cc1cc(CNC[C@@]2(N)CCN(c3ncnc4[nH]cc(C)c34)C2)no1 [Example 53, (3S)-3-({[(5-methylisoxazol-3-yl)methyl]amino}methyl)-1-(5-methyl-7H-pyrrolo[2,3-d]pyrimidin-4-yl)pyrrolidin-3-amine]
7.00 to 8.00 | 0.012 µM |  | CN(CC1(N)CCN(c2ncnc3[nH]cc(Cl)c23)C1)c1ccc(Cl)cc1 (centres unmarked) [Example 55, 3-{[(4-chlorophenyl)(methyl)-amino]methyl}-1-(5-chloro-7H-pyrrolo[2,3-d]pyrimidin-4-yl)pyrrolidin-3-amine]
7.00 to 8.00 | 0.014 µM |  | Cc1c[nH]c2ncnc(N3CC[C@](N)(CNC4=NC(=O)CC=C4)C3)c12 [Example 56, 6-({[(3S)-3-amino-1-(5-methyl-7H-pyrrolo[2,3-d]pyrimidin-4-yl)pyrrolidin-3-yl]methyl}amino)pyridin-2(3H)-one]

Source: patent publication US20080051419A1, “AMINE DERIVATIVES USEFUL AS ANTICANCER AGENTS” (PFIZER INC., priority 2006, published 2008)
